Source: patent US20160031878A1, “RADIOLABELED COMPOUNDS” (Hoffmann-La Roche Inc., priority 2013, published 2016)

Biological target: T1, human PDE10A full length (Homo sapiens, UniProt Q9Y233)
T1 construct: purchased Enzo Life Science, Lausen, Switzerland SE-534
Test: human PDE10A full length Scintillation Proximity Assay (SPA)
Type: biochemical
Conditions: 50 nM cGMP + 50 nM [3H]-cGMP, 20 min at room temperature, read-out: PDE10A inhibition IC50
Protocol: The following test was carried out in order to determine the activity of the compounds of the present invention. PDE10A activity of the compounds of the present invention was determined using a Scintillation Proximity Assay (SPA)-based method similar to the one previously described (Fawcett, L. et al., Proc. Natl. Acad. Sci. USA 2000, 97(7), 3702-3707).
The human PDE10A full length assay was performed in 96-well micro titer plates. The reaction mixture of 50 μl contained 20 mM HEPES pH=7.5/10 mM MgCl2/0.05 mg/ml BSA (Sigma cat. # A-7906), 50 nM cGMP (Sigma, cat. # G6129) and 50 nM [^3H]-cGMP (GE Healthcare, cat. # TRK392 S.A. 13.2 Ci/mmol), 3.75 ng/well PDE10A enzyme (Enzo Life Science, Lausen, Switzerland cat # SE-534) with or without a specific test compound. A range of concentrations of the potential inhibitor was used to generate data for calculating the concentration of inhibitor resulting in 50% of the effect (e.g. IC50, the concentration of the competitor inhibiting PDE10A activity by 50%). Non-specific activity was tested without the enzyme. The reaction was initiated by the addition of the substrate solution (cGMP and [^3H]-cGMP) and allowed to progress for 20 minutes at room temperature. […] Afterwards, radioactive counts were measured on a Perkin Elmer TopCount Scintillation plate reader.

T1 sequence (Q9Y233 1-779 isoform Q9Y233-1): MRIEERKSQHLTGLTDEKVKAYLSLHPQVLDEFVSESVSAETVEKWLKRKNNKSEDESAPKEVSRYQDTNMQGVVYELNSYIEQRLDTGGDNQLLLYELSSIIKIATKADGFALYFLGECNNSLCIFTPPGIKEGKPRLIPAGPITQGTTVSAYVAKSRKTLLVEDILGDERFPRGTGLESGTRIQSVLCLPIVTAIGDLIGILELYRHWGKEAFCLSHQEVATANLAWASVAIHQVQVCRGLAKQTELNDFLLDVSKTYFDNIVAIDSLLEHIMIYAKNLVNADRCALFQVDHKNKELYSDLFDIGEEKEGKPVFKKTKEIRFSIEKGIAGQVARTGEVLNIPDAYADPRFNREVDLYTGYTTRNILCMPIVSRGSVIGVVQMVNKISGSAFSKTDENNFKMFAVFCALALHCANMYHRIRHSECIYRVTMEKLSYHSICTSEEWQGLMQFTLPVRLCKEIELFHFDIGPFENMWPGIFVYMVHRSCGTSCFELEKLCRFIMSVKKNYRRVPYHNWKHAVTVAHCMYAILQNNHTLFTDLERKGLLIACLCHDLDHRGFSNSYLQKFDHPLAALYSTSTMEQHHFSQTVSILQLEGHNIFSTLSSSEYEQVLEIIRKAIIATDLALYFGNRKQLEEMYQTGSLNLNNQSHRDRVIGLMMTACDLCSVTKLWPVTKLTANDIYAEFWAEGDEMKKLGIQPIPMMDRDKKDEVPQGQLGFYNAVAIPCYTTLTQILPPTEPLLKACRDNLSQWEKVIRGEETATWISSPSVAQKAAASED

Structure (SMILES)	IC50 [nM]
CN(CCF)C(=O)c1cnn(C)c1C(=O)Nc1ccn2nc(-c3ccccc3)nc2c1 [Compound 4, 2-methyl-2H-pyrazole-3,4-dicarboxylic acid 4-[(2-fluoro-ethyl)-methyl-amide]3-[(2-phenyl-[1,2,4]triazolo[1,5-a]pyridin-7-yl)-amide]]	0.94
COc1cccc(-c2nc3cc(NC(=O)c4c(C(=O)N5CCOCC5)cnn4C)ccn3n2)c1 [Compound 21, 2-Methyl-4-(morpholine-4-carbonyl)-2H-pyrazole-3-carboxylic acid [2-(3-methoxy-phenyl)-[1,2,4]triazolo[1,5-a]pyridin-7-yl]-amide]	5.1
